# Measured values published in publication PMC8000395, “Effective Small Molecule Antibacterials from a Novel Anti-Protein Secretion Screen” (Microorganisms, 2021).
# “And” between values parts separate entries of the source, which are not always exact repeats. Identical values can stand only once. Like-named read-outs stand apart in the source and are kept apart here.
# What was measured:
# [1] = system: E. coli BW25113::imp-2413+; experiment: Antimicrobial activity test (growth, OD600); settings: Escherichia coli, BW25113, read-out: Viability IC50, BW25113::imp-2413+
# Providencia stuartii = experiment: Antimicrobial activity test (growth, OD600); assay type: cell-based; settings: read-out: Bacterial Viability (IC50)
# Salmonella typhimurium = experiment: Antimicrobial activity test (growth, OD600); assay type: cell-based; settings: Salmonella enterica, read-out: Bacterial Viability (IC50)
# Campylobacter jejuni = experiment: Antimicrobial activity test (growth, OD600); assay type: cell-based; settings: read-out: Bacterial Viability (IC50)
# HEK293T cells = settings: 24 h; for Toxicity of Mammalian Cells (HEK293T) LD50: human
# Procedure: Hek293T cells were harvested and diluted obtaining a cell suspension with a concentration of 200,000 cells/mL in complete growth medium (DMEM, 4.5 g/L d-glucose, pyruvate 1 mM, 0.075% bicarbonate and 10% Fetal Bovine serum). Of this cell suspension, 50 µL (10,000/well) was seeded in a 384 well culture plate (white polystyrene, tissue culture treated) and incubated at 37 °C-5% CO2 for 4 h in a moisturized incubator, which enables the cells to adhere. After the incubation, small chemical compounds were diluted in medium and 10 µL of a compound solution was added onto the cells, ending up with the required compound concentration. The cells were incubated for 24 h at 37 °C-5% CO2 in a moisturized incubator where after × µL medium was removed to equalize the liquid levels within one plate ending up with ±25 µL/well. The amount of remaining cells/well was determined with ATPlite^TM 1step (Perkin Elmer) Adenosine TriPhosphate (ATP) monitoring system, which is based on firefly luciferase.
# The cytotoxicity was calculated by subtracting RLU (relative light units) obtained from the cells incubated with a compound from the RLUs obtained from cells in the presence of the vehicle.
# The cytotoxic effect of a test compound was determined as:
# Percent cell death = [1−((RLU determined for sample with test compound present—1) divided by (RLU determined in the presence of vehicle—1))] * 100.
# [2] = system: Enterococcus faecium ATCC 804B; experiment: Antimicrobial activity test (growth, OD600); assay type: cell-based; settings: ATCC804B, read-out: Bacterial Viability (IC50)
# E. coli BW25113ΔtolC = experiment: Antimicrobial activity test (growth, OD600); settings: for Higher sensitivity of ΔtolC and imp-2413+ derivatives compared to BW25113: viability, Figure 5A
# Morganella morganii = experiment: Antimicrobial activity test (growth, OD600); assay type: cell-based; settings: read-out: Bacterial Viability (IC50)
# [3] = system: PhoA secretion in BW25113ΔtolC; experiment: Lab-scale p-nitrophenyl PhoA secretion assay, ΔtolC strain; assay type: cell-based, E. coli
# [4] = system: Mycobacterium abscessus ATCC19977; experiment: Antimicrobial activity test (growth, OD600); assay type: cell-based; settings: Mycobacteroides abscessus, read-out: Bacterial Viability (IC50)
# [5] = system: PhoA secretion in E. coli strain BL21 (pLysS); experiment: Luminescence-based HTS assay of in vivo PhoA secretion; assay type: cell-based; settings: Escherichia coli, BL21, luminescence-based HTS assay, E. coli BL21; read-out: Inhibition of PhoA Secretion IC50, HTS
# [6] = system: Gram-negative and Gram-positive bacteria; experiment: Antimicrobial activity test, summary over Gram-negative and Gram-positive bacteria; assay type: cell-based; settings: for Antibacterial character: 19 Gram-negative and Gram-positive species evaluated; for IC50: summary over species, read-out: Viability of Gram-negative and Gram-positive bacteria IC50 (range over species)
# [7] = Turbidimetric kinetic aqueous solubility assay; assay type: physicochemical; settings: kinetic from dmso stock
# Procedure: The determination of the aqueous solubility of compounds in this assay is based on the principle of turbidimetry. Turbidimetric methods rely on the measurement of light scattering from precipitate in solution to determine the solubility. Precipitation is identified by an absorbance increase due to blockage of the light by the particles at the wavelength of 570 nm. Compounds, stored in matrix vials (Thermo Fisher) at a stock concentration of 30 mM or 10 mM in 100% Dimethyl sulfoxide (DMSO), were used to make a serial dilution (dose-response) in a 96-well v-bottom propylene plate (Greiner, 651201). Serial dilutions are made to perform the solubility assay; they were made row-wise and start with undiluted compound (30 mM or 10 mM) in the first well and were then 1 over 3 diluted further on. The serial dilutions were eight doses long and contain six compounds per plate maximal (rows B-G). Columns 1 and 12 were filled with 100% DMSO for control purposes. The dose-response plates were 200-times diluted in 300 µL Phosphate Buffered Saline (PBS; pH = 7–7.2 without Ca^2+/Mg^2+) (Gibco, 14190-144) by transferring 1.5 µL of serially diluted compound. […] Dilutions were made by diluting one 96-well plate in two 96-well, flat-bottom, polystyrene plates (Greiner, 655101). These plates were then incubated at room temperature for 1h. After 1h incubation, the plates were read on the envision (Perkin Elmer) at 570 nm.
# The data of this assay is reported as “Soluble at” value for each compound. This “soluble at” value represents the concentration where the compound is still soluble and is the concentration before the first precipitated concentration. The first precipitated concentration is the concentration where the absorbance value is more than five standard deviations higher than the average background absorbance. The average background absorbance and the standard deviation are calculated on the 0.5% DMSO controls in columns 1 and 12.
# Serratia marcescens = experiment: Antimicrobial activity test (growth, OD600); assay type: cell-based; settings: read-out: Bacterial Viability (IC50)
# [8] = system: Pseudomonas aeruginosa 3/88; experiment: Antimicrobial activity test (growth, OD600); assay type: cell-based; settings: read-out: Bacterial Viability (IC50)
# E. coli MC4100 = experiment: Antimicrobial activity test (growth, OD600); assay type: cell-based; settings: Escherichia coli, MC4100; 20 h, 37 °C, OD600; read-out: Bacterial Viability IC50, E. coli MC4100
# Haemophilus influenzae = experiment: Antimicrobial activity test (growth, OD600); assay type: cell-based; settings: read-out: Bacterial Viability (IC50)
# Shigella sonnei = experiment: Antimicrobial activity test (growth, OD600); assay type: cell-based; settings: read-out: Bacterial Viability (IC50)
# B. subtilis ATCC6633 = experiment: Antimicrobial activity test (growth, OD600); assay type: cell-based; settings: Bacillus subtilis, ATCC6633; 20 h, 37 °C, OD600; read-out: Bacterial Viability IC50, B. subtilis ATCC6633
# [9] = system: PhoA secretion in E. coli BW25113; experiment: Lab-scale p-nitrophenyl PhoA secretion assay, BW25113; assay type: cell-based; settings: Escherichia coli, read-out: PhoA secretion in vivo IC50, E. coli BW25113
# [10] = Escherichia coli, read-out: Inhibition of PhoA Secretion IC50, Lab-Scale (ΔtolC strain), BW25113ΔtolC, p-nitrophenyl assay
# [11] = Escherichia coli, read-out: Inhibiton of PhoA secretion in ΔtolC strain (Lab-scale) IC50, selection threshold of the screening pipeline, Figure 1B
# [12] = pH 7, aqueous buffer, turbidimetry 570 nm, PBS pH 7–7.2, 0.5% DMSO, 1 h, read-out: Aqueous Solubility (soluble at)
# [13] = pH 7.1, aqueous buffer, selection threshold, Figure 1B, read-out: Solubility
Compound,IC50 [1] [µM],IC50 (Providencia stuartii) [µM],IC50 (Salmonella typhimurium) [µM],IC50 (Campylobacter jejuni) [µM],Human cell toxicity LD50 (HEK293T cells) [µM],Toxicity of Mammalian Cells (HEK293T) LD50 (HEK293T cells) [µM],IC50 [2] [µM],Higher sensitivity of ΔtolC and imp-2413+ derivatives compared to BW25113 (E. coli BW25113ΔtolC) [times],IC50 (Morganella morganii) [µM],"IC50 [3, 10] [µM]","IC50 [3, 11] [µM]",IC50 [4] [µM],IC50 [5] [µM],Antibacterial character [6],IC50 [6] [µM],"solubility at 1 h [7, 12]","solubility at 1 h [7, 13] [µM]",IC50 (Serratia marcescens) [µM],IC50 [8] [µM],IC50 (E. coli MC4100) [µM],also measured
O=C(/C=C/c1csnn1)c1ccccc1Cl [HSI#01],23.2,> 100,> 100,> 100,> 15,6.7,34.5,2 to 40,> 100,1.37,< 2,33.8,11.9,bacteriocidal,1 to 37,50 µM and 12.5 µg/mL,> 15,> 100,> 100,> 100,"IC50 (E. coli BW25113ΔtolC; Escherichia coli, read-out: Viability IC50, BW25113ΔtolC, E. coli strain missing TolC): < 14 µM; IC50 ([3]; read-out: Inhibition of PhoA Secretion IC50, Lab-Scale (ΔtolC strain), BW25113ΔtolC, p-nitrophenyl assay): 1.4 µM; IC50 (Haemophilus influenzae): > 100 µM; IC50 (Shigella sonnei): > 100 µM; IC50 (B. subtilis ATCC6633): 37.6 µM; IC50 [9]: 8.13 µM"
O=C(/C=C/c1csnn1)c1cc(Cl)ccc1Cl [HSI#05],10.3,> 100,> 100,> 100,> 15,6.7,9.4,2 to 40,> 100,0.94,< 2,17.9,35.2,bacteriocidal,1 to 37,4.8 µg/mL,> 15,> 100,> 100,> 100,"IC50 (E. coli BW25113ΔtolC; read-out: Viability IC50, BW25113ΔtolC, E. coli strain missing TolC, listed as HSI#5): < 14 µM; IC50 (Haemophilus influenzae): > 100 µM; IC50 (Shigella sonnei): > 100 µM; IC50 (B. subtilis ATCC6633): 27.8 µM; IC50 [9]: 3.2 µM"
O=C(/C=C/c1csnn1)c1cccc2ccccc12 [HSI#10],12.2,> 100,> 100,> 100,> 15,6.7,23.5,2 to 40,> 100,0.99,< 2,21.8,20,bacteriocidal,1 to 37,4.4 µg/mL,> 15,> 100,> 100,> 100,IC50 (Haemophilus influenzae): > 100 µM; IC50 (Shigella sonnei): > 100 µM; IC50 (B. subtilis ATCC6633): 26 µM; IC50 [9]: 24.9 µM
